Data published in PubChem BioAssay (NCI).
Several values for one entry are separate records, joined by “and”; a condition that tells them apart may be missing. Equal values may be shown once.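 Assay format: 96-well plates, 48-hour exposure. Abbreviation: GI50, concentration required for 50% inhibition of growth. The concentration for full growth arrest is given as TGI.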

Assays:
Assay in all cases: NCI-60 cell line screen, 48 h
[1] = system: KM20L2 colon
[2] = system: DMS 273 small cell lung
[3] = system: HOP-18 NSCLC
[4] = system: IGROV1 ovarian
[5] = system: DLD-1 colon
[6] = system: HL-60(TB) leukemia
[7] = system: M19-MEL melanoma
[8] = system: SK-MEL-28 melanoma
[9] = system: KM12 colon
[10] = system: LXFL 529 NSCLC
[11] = system: DMS 114 small cell lung
[12] = system: 786-0 renal
[13] = system: T-47D breast
[14] = system: MDA-MB-435
[15] = system: DU-145 prostate

| Compound | TGI [1] | TGI [2] | GI50 [3] | TGI [3] | TGI [4] | GI50 [5] | TGI [5] | TGI [6] | TGI [7] | GI50 [8] | TGI [8] | TGI [9] | TGI [10] | TGI [11] | TGI [12] | TGI [13] | TGI [14] | TGI [15] |
| --- | --- | --- | --- | --- | --- | --- | --- | --- | --- | --- | --- | --- | --- | --- | --- | --- | --- | --- |
| COc1cc(C2c3cc4c(cc3[C@@H](NCCCN(C)C)[C@H]3COC(=O)C23)OCO4)cc(OC)c1O (stereo partly specified) | 2.44 µM and 4.44 µM | 2.06 µM and 2.61 µM | 3.78 µM and 1.18 µM | > 37.5 µM and 16.3 µM | 2.03 µM and 4.03 µM | 1.03 µM and 3.78 µM | 4.01 µM and > 20 µM | 0.231 µM and 0.245 µM | 2.17 µM and 3.35 µM | 0.764 µM and 2.76 µM | 2.09 µM and 8.62 µM | 2.26 µM and 3.61 µM | 25.7 µM and > 20 µM | – | – | – | – | – |
| C=CCCCCCC(O)C(O)C/C=C\C/C=C\CC (stereo unspecified) | > 18.8 µM | > 18.8 µM | – | > 18.8 µM | > 18.8 µM | – | > 18.8 µM | > 18.8 µM | – | – | > 18.8 µM | > 18.8 µM | > 18.8 µM | > 18.8 µM | > 18.8 µM | – | – | – |
| C/C(=N\NC(=S)NNC(=S)N(C)c1ccccc1)c1ccccn1 | – | > 100 µM | – | 0.732 µM | – | – | > 100 µM | – | 7.59 µM | – | > 100 µM | > 100 µM | > 100 µM | 12.6 µM | > 47.2 µM | 72.8 µM | 25.6 µM | > 100 µM |
| CC(C)(c1ccc(OC#N)cc1)c1ccc(OC#N)cc1 | > 100 µM | – | – | > 100 µM | > 100 µM | – | > 100 µM | > 77.7 µM | > 100 µM | – | > 100 µM | > 100 µM | > 100 µM | > 56.9 µM | > 100 µM | – | – | – |
| CCOC(=O)/C=C/c1c[nH]c(C(=O)OCC)c1 | > 100 µM | > 100 µM | – | > 100 µM | > 100 µM | – | > 100 µM | > 100 µM | > 100 µM | – | > 100 µM | > 100 µM | – | > 100 µM | – | – | – | – |
| N#CC(NNC(=O)c1ccccc1O)c1ccccc1 (stereo unspecified) | > 100 µM | > 100 µM | – | > 100 µM | > 100 µM | – | > 100 µM | 52.5 µM | > 100 µM | – | > 100 µM | > 100 µM | > 100 µM | 4.87 µM | > 100 µM | – | – | – |
| c1ccc2c3c([nH]c2c1)C1(CCCCC1)c1c([nH]c2ccccc12)C31CCCCC1 | > 100 µM | 59 µM | – | 68.2 µM | > 100 µM | – | > 100 µM | > 100 µM | > 100 µM | – | > 100 µM | > 100 µM | > 100 µM | > 100 µM | 32.2 µM | – | – | – |
